Target: α4β7 integrin (Homo sapiens (Human), UniProt P13612+P26010)
Assay: α4β7 Integrin Cell Capture Assay
Format: cell-based
Conditions: Table 1; capture of α4β7 expressing RPM18866 cells on MadCAM-1 extracellular domain-coated plate
Description: α4β7 Integrin Cell Capture Assay
The potency of inhibitors in preventing α4β7 integrin interaction with MadCAM-1 was measured by monitoring the capture of α4β7 integrin expressing cells on a recombinant MadCAM-1 extracellular domain-coated plate. […] The plates were then washed with PBS and blocked with 3% BSA for 2 hours before being washed again.
RPM18866 cells were spun down and re-suspended in assay medium (DMEM+0.5% FBS+0.5 mM MnCl2) at a density of 0.5×10^6 cells/mL. […] The plates were incubated at 37° C. for 1 hour. 50 μL of cells were transferred to the blocked, MadCAM-1-coated plates and incubated for 30 minutes at 37° C. […] The plates were incubated for 90 minutes at room temperature. The plates were then washed 3 times with 70 μL of PBS per well and imaged on a Cellomics ArrayScan instrument. The cells that were bound to the plate were counted and plotted against the compound concentration to determine the EC50 of the test compounds.

Sequence of α4β7 integrin (P13612 34-1032): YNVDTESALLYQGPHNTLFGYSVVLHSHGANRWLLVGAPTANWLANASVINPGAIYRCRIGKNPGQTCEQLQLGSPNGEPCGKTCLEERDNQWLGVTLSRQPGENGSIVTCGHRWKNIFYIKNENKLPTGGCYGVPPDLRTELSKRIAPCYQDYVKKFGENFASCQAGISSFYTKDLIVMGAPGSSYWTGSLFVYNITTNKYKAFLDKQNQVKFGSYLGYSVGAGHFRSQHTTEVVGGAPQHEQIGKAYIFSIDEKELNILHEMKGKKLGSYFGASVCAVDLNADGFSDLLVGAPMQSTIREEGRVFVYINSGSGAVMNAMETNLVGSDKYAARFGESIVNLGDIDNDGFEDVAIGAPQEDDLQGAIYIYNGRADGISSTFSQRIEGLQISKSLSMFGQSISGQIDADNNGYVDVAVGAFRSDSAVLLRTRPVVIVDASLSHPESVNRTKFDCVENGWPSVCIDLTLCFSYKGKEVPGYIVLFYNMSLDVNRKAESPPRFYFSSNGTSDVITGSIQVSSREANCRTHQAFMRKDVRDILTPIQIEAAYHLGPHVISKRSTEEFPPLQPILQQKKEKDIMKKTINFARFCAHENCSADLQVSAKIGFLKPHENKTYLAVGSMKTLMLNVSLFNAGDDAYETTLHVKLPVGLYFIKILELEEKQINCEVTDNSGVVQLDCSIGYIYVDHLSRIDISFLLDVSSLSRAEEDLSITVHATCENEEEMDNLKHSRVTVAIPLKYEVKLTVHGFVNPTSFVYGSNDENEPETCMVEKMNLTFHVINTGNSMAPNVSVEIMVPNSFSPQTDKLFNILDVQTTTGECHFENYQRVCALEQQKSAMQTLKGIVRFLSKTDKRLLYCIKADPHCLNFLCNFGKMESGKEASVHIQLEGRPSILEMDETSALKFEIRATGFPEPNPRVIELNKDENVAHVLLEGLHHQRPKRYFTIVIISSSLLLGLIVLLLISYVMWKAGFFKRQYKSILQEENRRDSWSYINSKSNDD
Sequence of α4β7 integrin (P26010 20-798): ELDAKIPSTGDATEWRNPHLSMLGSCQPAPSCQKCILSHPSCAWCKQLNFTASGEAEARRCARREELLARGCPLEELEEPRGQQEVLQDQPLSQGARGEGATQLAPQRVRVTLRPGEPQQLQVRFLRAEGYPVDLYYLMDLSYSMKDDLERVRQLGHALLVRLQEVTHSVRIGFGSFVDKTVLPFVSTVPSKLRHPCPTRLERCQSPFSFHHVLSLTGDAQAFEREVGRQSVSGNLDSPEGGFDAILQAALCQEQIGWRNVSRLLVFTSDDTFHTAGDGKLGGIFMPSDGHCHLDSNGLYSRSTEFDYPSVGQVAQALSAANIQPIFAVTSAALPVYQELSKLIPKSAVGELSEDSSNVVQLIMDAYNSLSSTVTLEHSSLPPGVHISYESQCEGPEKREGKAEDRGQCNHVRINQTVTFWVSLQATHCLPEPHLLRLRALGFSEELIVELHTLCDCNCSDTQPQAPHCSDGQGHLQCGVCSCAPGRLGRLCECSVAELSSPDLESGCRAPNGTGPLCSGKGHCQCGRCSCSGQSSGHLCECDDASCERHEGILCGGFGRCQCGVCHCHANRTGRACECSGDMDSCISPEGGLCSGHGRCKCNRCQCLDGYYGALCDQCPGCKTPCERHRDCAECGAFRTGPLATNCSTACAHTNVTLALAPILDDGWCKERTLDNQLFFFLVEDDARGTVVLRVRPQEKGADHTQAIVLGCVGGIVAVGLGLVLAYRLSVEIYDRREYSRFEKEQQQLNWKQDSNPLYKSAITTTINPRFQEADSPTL

| Compound | EC50 [µM] |
| --- | --- |
| O=C(N[C@@H](Cc1ccc(-c2ncccn2)c2ncccc12)C(=O)O)c1c(F)cc(NS(=O)(=O)c2ccc(-c3ccnc(F)c3)cc2)cc1F [Example 58, (S)-2-(2,6-difluoro-4-((4-(2-fluoropyridin-4-yl)phenyl)sulfonamido)benzamido)-3-(8-(pyrimidin-2-yl)quinolin-5-yl)propanoic acid] | 0.002 |
| N#Cc1ccccc1-c1ccc(C[C@H](NC(=O)c2c(F)cc(NS(=O)(=O)c3ccc(-c4ccnc(F)c4)cc3)cc2F)C(=O)O)c2cccnc12 [Example 59, (S)-3-(8-(2-cyanophenyl)quinolin-5-yl)-2-(2,6-difluoro-4-((4-(2-fluoropyridin-4-yl)phenyl)sulfonamido)benzamido)propanoic acid] | 0.0032 |
| COc1c(F)cccc1-c1ccc(C[C@H](NC(=O)c2c(F)cc(NS(=O)(=O)c3ccc(-c4ccnc(F)c4)cc3)cc2F)C(=O)O)c2cccnc12 [Example 60, (S)-2-(2,6-difluoro-4-((4-(2-fluoropyridin-4-yl)phenyl)sulfonamido)benzamido)-3-(8-(3-fluoro-2-methoxyphenyl)quinolin-5-yl)propanoic acid] | 0.003 |
| CS(=O)(=O)c1cc(F)ccc1-c1ccc(C[C@H](NC(=O)c2c(F)cc(NS(=O)(=O)c3ccc(-c4ccnc(F)c4)cc3)cc2F)C(=O)O)c2cccnc12 [Example 61, (S)-2-(2,6-difluoro-4-((4-(2-fluoropyridin-4-yl)phenyl)sulfonamido)benzamido)-3-(8-(4-fluoro-2-(methylsulfonyl)phenyl)quinolin-5-yl)propanoic acid] | 0.0042 |
| O=C(N[C@@H](Cc1ccc(-c2cccc3c2OCCC3)c2ncccc12)C(=O)O)c1c(F)cc(NS(=O)(=O)c2ccc(-c3ccnc(F)c3)cc2)cc1F [Example 62, (S)-3-(8-(chroman-8-yl)quinolin-5-yl)-2-(2,6-difluoro-4-((4-(2-fluoropyridin-4-yl)phenyl)sulfonamido)benzamido)propanoic acid] | 0.0018 |
| Cc1ccccc1-c1ccc(C[C@H](NC(=O)c2c(F)cc(NS(=O)(=O)c3ccc(-c4ccnc(F)c4)cc3)cc2F)C(=O)O)c2cccnc12 [Example 63, (S)-2-(2,6-difluoro-4-((4-(2-fluoropyridin-4-yl)phenyl)sulfonamido)benzamido)-3-(8-(o-tolyl)quinolin-5-yl)propanoic acid] | 0.0305 |
| COc1cccc(C)c1-c1ccc(C[C@H](NC(=O)c2c(F)cc(NS(=O)(=O)c3ccc(-c4ccnc(F)c4)cc3)cc2F)C(=O)O)c2cccnc12 [Example 64, (2S)-2-(2,6-difluoro-4-((4-(2-fluoropyridin-4-yl)phenyl)sulfonamido)benzamido)-3-(8-(2-methoxy-6-methylphenyl)quinolin-5-yl)propanoic acid] | 0.0008 |
| O=C(N[C@@H](Cc1ccc(-c2ccccc2C(F)(F)F)c2ncccc12)C(=O)O)c1c(F)cc(NS(=O)(=O)c2ccc(-c3ccnc(F)c3)cc2)cc1F [Example 65, (S)-2-(2,6-difluoro-4-((4-(2-fluoropyridin-4-yl)phenyl)sulfonamido)benzamido)-3-(8-(2-(trifluoromethyl)phenyl)quinolin-5-yl)propanoic acid] | 0.0084 |
| COc1ccc(C(F)(F)F)c(-c2ccc(C[C@H](NC(=O)c3c(Cl)cccc3Cl)C(=O)O)c3cccnc23)n1 [Example 69, (S)-2-(2,6-dichlorobenzamido)-3-(8-(6-methoxy-3-(trifluoromethyl)pyridin-2-yl)quinolin-5-yl)propanoic acid] | 0.0289 |
| COc1cnn(C)c(=O)c1-c1ccc(C[C@H](NC(=O)c2c(F)cccc2F)C(=O)O)c2cccnc12 [Example 70, (S)-2-(2,6-difluorobenzamido)-3-(8-(5-methoxy-2-methyl-3-oxo-2,3-dihydropyridazin-4-yl)quinolin-5-yl)propanoic acid] | 0.0107 |
| O=C(N[C@@H](Cc1ccc(-c2ncc3ccccc3c2C(F)(F)F)c2ncccc12)C(=O)O)c1c(F)cccc1F [Example 71, (S)-2-(2,6-difluorobenzamido)-3-(8-(4-(trifluoromethyl)isoquinolin-3-yl)quinolin-5-yl)propanoic acid] | 0.0095 |
| Cc1cc(C(F)(F)F)c(-c2ccc(C[C@H](NC(=O)c3c(Cl)cccc3Cl)C(=O)O)c3cccnc23)c(=O)n1C [Example 73, (S)-2-(2,6-dichlorobenzamido)-3-(8-(1,6-dimethyl-2-oxo-4-(trifluoromethyl)-1,2-dihydropyridin-3-yl)quinolin-5-yl)propanoic acid] | 0.0025 |
| CC[C@@H](Nc1cc(F)c(C(=O)N[C@@H](Cc2ccc(-c3ccc(C#N)cc3Cl)c3ncccc23)C(=O)O)c(F)c1)C(F)(F)F [Example 74, (S)-3-(8-(2-chloro-4-cyanophenyl)quinolin-5-yl)-2-(2,6-difluoro-4-(((R)-1,1,1-trifluorobutan-2-yl)amino)benzamido)propanoic acid] | 0.0136 |
| N#Cc1ccc(-c2ccc(C[C@H](NC(=O)c3c(F)cc(N4CCCC[C@@H]4C(F)(F)F)cc3F)C(=O)O)c3cccnc23)c(Cl)c1 [Example 75, (S)-3-(8-(2-chloro-4-cyanophenyl)quinolin-5-yl)-2-(2,6-difluoro-4-((R)-2-(trifluoromethyl)piperidin-1-yl)benzamido)propanoic acid] | 0.0804 |
| N#Cc1ccc(-c2ccc(C[C@H](NC(=O)c3c(F)cc(N4CCC[C@@H]4C(F)(F)F)cc3F)C(=O)O)c3cccnc23)c(Cl)c1 [Example 76, (S)-3-(8-(2-chloro-4-cyanophenyl)quinolin-5-yl)-2-(2,6-difluoro-4-((R)-2-(trifluoromethyl)pyrrolidin-1-yl)benzamido)propanoic acid] | 0.0784 |
| N#Cc1ccc(-c2ccc(C[C@H](NC(=O)c3c(F)cc(N4CCNC[C@@H]4C(F)(F)F)cc3F)C(=O)O)c3cccnc23)c(Cl)c1 [Example 77, (S)-3-(8-(2-chloro-4-cyanophenyl)quinolin-5-yl)-2-(2,6-difluoro-4-((R)-2-(trifluoromethyl)piperazin-1-yl)benzamido)propanoic acid] | 0.0907 |
| N#Cc1ccc(-c2ccc(C[C@H](NC(=O)c3c(F)cc(N4CCC4C(F)(F)F)cc3F)C(=O)O)c3cccnc23)c(Cl)c1 (stereo partly drawn) [Example 78, (2S)-3-(8-(2-chloro-4-cyanophenyl)quinolin-5-yl)-2-(2,6-difluoro-4-(2-(trifluoromethyl)azetidin-1-yl)benzamido)propanoic acid] | 0.134 |
| N#Cc1ccc(-c2ccc(C[C@H](NC(=O)c3c(F)cc(N4CCOCC4)cc3F)C(=O)O)c3cccnc23)c(Cl)c1 [Example 79, (S)-3-(8-(2-chloro-4-cyanophenyl)quinolin-5-yl)-2-(2,6-difluoro-4-morpholinobenzamido)propanoic acid] | 0.0261 |
| N#Cc1ccc(-c2ccc(C[C@H](NC(=O)c3c(F)cc(N4CCS(=O)(=O)CC4)cc3F)C(=O)O)c3cccnc23)c(Cl)c1 [Example 80, (S)-3-(8-(2-chloro-4-cyanophenyl)quinolin-5-yl)-2-(4-(1,1-dioxidothiomorpholino)-2,6-difluorobenzamido)propanoic acid] | 0.0181 |
| N#Cc1ccc(-c2ccc(C[C@H](NC(=O)c3c(F)cc(N4CCOCC4C(F)(F)F)cc3F)C(=O)O)c3cccnc23)c(Cl)c1 (some centres unmarked) [Example 81] | 0.006 |
| N#Cc1ccc(-c2ccc(C[C@H](NC(=O)c3c(F)cc(N4CCO[C@H](C(F)(F)F)C4)cc3F)C(=O)O)c3cccnc23)c(Cl)c1 [Example 85, (S)-3-(8-(2-chloro-4-cyanophenyl)quinolin-5-yl)-2-(2,6-difluoro-4-((S)-2-(trifluoromethyl)morpholino)benzamido)propanoic acid] | 0.0254 |
| N#Cc1ccc(-c2ccc(C[C@H](NC(=O)c3c(F)cc(N[C@H](c4ccccc4)C(F)(F)F)cc3F)C(=O)O)c3cccnc23)c(Cl)c1 [Example 86, (S)-3-(8-(2-chloro-4-cyanophenyl)quinolin-5-yl)-2-(2,6-difluoro-4-(((R)-2,2,2-trifluoro-1-phenylethyl)amino)benzamido)propanoic acid] | 0.0083 |
| C[C@@H](N(C)c1cc(F)c(C(=O)N[C@@H](Cc2ccc(-c3ccc(C#N)cc3Cl)c3ncccc23)C(=O)O)c(F)c1)C(F)(F)F [Example 87, (S)-3-(8-(2-chloro-4-cyanophenyl)quinolin-5-yl)-2-(2,6-difluoro-4-(methyl((R)-1,1,1-trifluoropropan-2-yl)amino)benzamido)propanoic acid] | 0.015 |
| N#Cc1ccc(-c2ccc(C[C@H](NC(=O)c3c(F)cc(NC(C(F)(F)F)C(F)(F)F)cc3F)C(=O)O)c3cccnc23)c(Cl)c1 [Example 88, (S)-3-(8-(2-chloro-4-cyanophenyl)quinolin-5-yl)-2-(2,6-difluoro-4-((1,1,1,3,3,3-hexafluoropropan-2-yl)amino)benzamido)propanoic acid] | 0.0082 |
| N#Cc1ccc(-c2ccc(C[C@H](NC(=O)c3c(F)cc(N[C@H](C4CC4)C(F)(F)F)cc3F)C(=O)O)c3cccnc23)c(Cl)c1 [Example 90] | 0.0113 |
| CC[C@@H](Nc1cc(F)c(C(=O)N[C@@H](Cc2ccc(-c3c(C(F)(F)F)cc(C)n(C)c3=O)c3ncccc23)C(=O)O)c(F)c1)C(F)(F)F [Example 91, (S)-2-(2,6-difluoro-4-(((R)-1,1,1-trifluorobutan-2-yl)amino)benzamido)-3-(8-(1,6-dimethyl-2-oxo-4-(trifluoromethyl)-1,2-dihydropyridin-3-yl)quinolin-5-yl)propanoic acid] | 0.0003 |

Reference: patent publication US11116760B2 (Gilead Sciences, Inc., priority 2018, dated 2021)
